Active and inactive are the calls of the source. The rule behind the calls is not given here.
Tests used:
[1] = Metabolic stability in 10% human plasma assessed as half life at pH 7.4 by RP-HPLC
[2] = Metabolic stability in 50% human plasma assessed as half life at pH 7.4 by RP-HPLC
Plasma [3] = assay: Metabolic stability in 50% human plasma assessed as aspirin release at pH 7.4 by RP-HPLC; type: ADME, cell-free; also: time not given here
Plasma [4] = assay: Metabolic stability in 10% human plasma assessed as aspirin release at pH 7.4 by RP-HPLC; type: ADME, cell-free; also: time not given here
Plasma [5] = assay: Metabolic stability in 50% human plasma assessed as half life at pH 7.4 by RP-HPLC in presence of BuChE-inhibitor dibucaine; type: ADME, cell-free
Plasma [6] = assay: Metabolic stability in 50% human plasma assessed as half life at pH 7.4 by RP-HPLC in presence of cholinesterase-inhibitor eserine; type: ADME, cell-free
Plasma [7] = assay: Metabolic stability in 50% human plasma assessed as aspirin release at pH 7.4 by RP-HPLC in presence of BuChE-inhibitor dibucaine; type: ADME, cell-free
Plasma [8] = assay: Metabolic stability in 50% human plasma assessed as half life at pH 7.4 by RP-HPLC in presence of AChE-inhibitor PMSF; type: ADME, cell-free
Plasma [9] = assay: Metabolic stability in 50% human plasma assessed as aspirin release at pH 7.4 by RP-HPLC in presence of AChE-inhibitor PMSF; type: ADME, cell-free
Plasma [10] = assay: Metabolic stability in 50% human plasma assessed as half life at pH 7.4 by RP-HPLC in presence of BuChE-inhibitor isoOMPA; type: ADME, cell-free
[11] = Antiplatelets aggregatory activity in human platelets rich plasma assessed as inhibition of collagen-induced platelets aggregation by aggregometry; type: functional, cell-free; settings: Platelet
Platelet [12] = assay: Antiplatelets aggregatory activity in washed human platelets assessed as inhibition of ADP-induced platelets aggregation by aggregometry in presence of glutathione; type: functional, cell-based
Platelet [13] = assay: Antiplatelets aggregatory activity in human platelets rich plasma assessed as inhibition of ADP-induced platelets aggregation by aggregometry in presence of […] ODQ; type: functional, cell-free
Platelet [14] = assay: Antiplatelets aggregatory activity in human platelets rich plasma assessed as inhibition of ADP-induced platelets aggregation by aggregometry; type: functional, cell-free
Platelet [15] = assay: Antiplatelets aggregatory activity in washed human platelets assessed as inhibition of ADP-induced platelets aggregation by aggregometry in presence of glutathione and ODQ; type: functional, cell-based
Plasma [16] = assay: Metabolic stability in 50% human plasma assessed as half life at pH 7.4 by RP-HPLC; type: ADME, cell-free

| Structure (SMILES) | half-life [1] [min] | half-life [2] [min] | Activity (Plasma [3]) [%] | Activity (Plasma [4]) [%] | further results |
| --- | --- | --- | --- | --- | --- |
| CC(=O)Oc1ccccc1C(=O)O[C@H]1CO[C@H]2[C@@H]1OC[C@H]2OC(=O)CO[N+](=O)[O-] | 3.6 | 0.9 | – | – | – |
| CC(=O)Oc1ccccc1C(=O)O[C@H]1CO[C@H]2[C@@H]1OC[C@H]2OC(=O)c1ccc(C)cc1 | 6.3 | 2.17 | 14.7 | 16 | – |
| CC(=O)Oc1ccccc1C(=O)O[C@H]1CO[C@H]2[C@@H]1OC[C@H]2OC(=O)c1ccc([N+](=O)[O-])cc1 | 2.77 | 1.36 | 22 | 13 | – |
| CC(=O)Oc1ccccc1C(=O)O[C@H]1CO[C@H]2[C@@H]1OC[C@H]2O[N+](=O)[O-] | 0.867 | 0.188 | 7.7 | 9.1 | t1/2 (Plasma [5]): 4.2 min; t1/2 (Plasma [6]): 178 min; Activity (Plasma [7]): 6.75%; t1/2 (Plasma [8]): 2.9 min; Activity (Plasma [9]): 6.2%; t1/2 (Plasma [10]): 38.3 min |
| CC(=O)Oc1ccccc1C(=O)O[C@H]1CO[C@H]2[C@@H]1OC[C@H]2OC(=O)c1ccccc1 | 3.3 | 0.64 | 29 | 19 | – |
| CC(=O)Oc1ccccc1C(=O)O[C@H]1CO[C@H]2[C@@H]1OC[C@H]2OC(=O)c1snnc1C | 3.85 | 0.39 | 31 | 32 | – |
| CC(=O)Oc1ccccc1C(=O)O[C@H]1CO[C@H]2[C@@H]1OC[C@H]2OC(=O)c1ccnn1C | 5.78 | 3.85 | 6 | 7 | – |
| CC(=O)Oc1ccccc1C(=O)O[C@H]1CO[C@H]2[C@@H]1OC[C@H]2OC(=O)CCO[N+](=O)[O-] | 3.9 | 1.3 | – | – | – |
| CC(=O)Oc1ccccc1C(=O)O[C@H]1CO[C@H]2[C@@H]1OC[C@H]2OC(=O)c1ccccc1C | 2.1 | 0.83 | 59 | 46 | – |
| CC(=O)Oc1ccccc1C(=O)O[C@H]1CO[C@H]2[C@@H]1OC[C@H]2OC(=O)c1ccncc1 | 3.7 | 0.33 | 27 | 19 | – |
| CCC(=O)O[C@@H]1CO[C@H]2[C@@H]1OC[C@@H]2OC(=O)c1ccccc1OC(C)=O | 3.65 | 0.66 | 7 | 6.8 | – |
| COc1ccccc1C(=O)O[C@@H]1CO[C@H]2[C@@H]1OC[C@@H]2OC(=O)c1ccccc1OC(C)=O | 3.47 | 0.99 | 7 | 5 | – |
| CC(=O)Oc1ccccc1C(=O)O[C@H]1CO[C@H]2[C@@H]1OC[C@H]2OC(=O)c1ccccc1CO[N+](=O)[O-] | 2.7 | 3.2 | 34 | 32 | IC50 [11]: 90.3 µM |
| CC(=O)Oc1ccccc1C(=O)O[C@H]1CO[C@H]2[C@@H]1OC[C@H]2OC(=O)c1cccc(CO[N+](=O)[O-])c1 | 2.6 | 2.7 | 55 | 51 | inhibition (Platelet [12]): Active; inhibition (Platelet [13]): inactive; inhibition (Platelet [14]): Active; IC50 [11]: 17.1 µM; inhibition (Platelet [15]): inactive |
| CCCCC(=O)O[C@@H]1CO[C@H]2[C@@H]1OC[C@@H]2OC(=O)c1ccccc1OC(C)=O | 1.19 | 0.7 | < 0.5 | – | – |
| CC(=O)Oc1ccccc1C(=O)O[C@H]1CO[C@H]2[C@@H]1OC[C@H]2OC(=O)c1cccc(O)c1 | 1.1 | 0.9 | 29 | 44 | – |
| CC(=O)Oc1ccccc1C(=O)O [ASPIRIN] | – | – | – | – | IC50 [11]: 20.6 µM |
| CC(=O)Oc1ccccc1C(=O)O[C@H]1CO[C@H]2[C@@H]1OC[C@H]2O | 3.3 | 1.1 | < 0.5 | < 0.5 | – |

| Structure (SMILES) | half-life [1] [min] | half-life [2] [min] | Activity (Plasma [3]) [%] | Activity (Plasma [4]) [%] | further results |
| --- | --- | --- | --- | --- | --- |
| CC(=O)Oc1ccccc1C(=O)O[C@@H]1CO[C@H]2[C@@H]1OC[C@@H]2O[N+](=O)[O-] (racemic) | 1.3 | – | – | – | – |
| CC(=O)Oc1ccccc1C(=O)O[C@H]1CO[C@H]2[C@@H]1OC[C@H]2OC(=O)c1ccc(O)cc1 | 1.19 | 1.19 | 0.5 | 1 | – |
| CC(=O)Nc1cccc(C(=O)O[C@@H]2CO[C@H]3[C@@H]2OC[C@@H]3OC(=O)c2ccccc2OC(C)=O)c1 | – | 3.5 | 11 | – | – |
| CC(=O)Oc1ccccc1C(=O)O[C@H]1CO[C@H]2[C@@H]1OC[C@H]2OC(=O)c1cnccc1Cl | 3.85 | 1.93 | 17 | 18 | – |
| CC(=O)Oc1ccccc1C(=O)O[C@H]1CO[C@H]2[C@@H]1OC[C@H]2OC(=O)c1cnoc1C | 11.6 | – | 14 | 18 | t1/2 (Plasma [16]): 0.06 min |
| COc1cccc(C(=O)O[C@@H]2CO[C@H]3[C@@H]2OC[C@@H]3OC(=O)c2ccccc2OC(C)=O)c1 | 3.15 | 0.85 | 17 | 19 | – |
| CC(=O)Oc1ccccc1C(=O)O[C@H]1CO[C@H]2[C@@H]1OC[C@H]2OC(=O)c1ccccc1OC(=O)c1ccccc1 | 23.1 | 4.33 | 19 | 28 | – |
| CC(=O)Oc1ccccc1C(=O)O[C@H]1CO[C@H]2[C@@H]1OC[C@H]2OC(=O)C1CC1 | 1.93 | 0.9 | < 0.5 | 2 | – |
| CC(=O)Oc1ccccc1C(=O)O[C@H]1CO[C@H]2[C@@H]1OC[C@H]2OC(=O)c1cc(C)nc(Cl)c1 | 1.16 | 1.16 | 14 | 24 | – |
| CC(=O)Oc1ccccc1C(=O)O[C@H]1CO[C@H]2[C@@H]1OC[C@H]2OC(C)=O | 3.65 | 0.57 | 1.3 | 1.2 | – |
| COc1ccc(C(=O)O[C@@H]2CO[C@H]3[C@@H]2OC[C@@H]3OC(=O)c2ccccc2OC(C)=O)cc1 | 3.15 | 1.1 | 4 | 2.6 | – |
| CC(=O)Oc1ccccc1C(=O)O[C@H]1CO[C@H]2[C@@H]1OC[C@H]2OC(=O)c1ccc(CO[N+](=O)[O-])cc1 | 6 | 2.4 | < 1 | < 5 | IC50 [11]: > 300 µM |
| CC(=O)Oc1ccccc1C(=O)O[C@H]1CO[C@H]2[C@@H]1OC[C@H]2OC(=O)c1ccc(C#N)cc1 | 5.33 | 4.08 | < 0.5 | 19 | – |
| CC(=O)Oc1ccccc1C(=O)O[C@H]1CO[C@H]2[C@@H]1OC[C@H]2OC(=O)c1ccc(-c2ccccc2)cc1 | > 20 | > 20 | < 0.5 | < 0.5 | – |
| CC(=O)Oc1ccccc1C(=O)O[C@H]1CO[C@H]2[C@@H]1OC[C@H]2OC(=O)c1cccnc1 | 1.39 | 0.37 | 32 | 41 | – |
| CC(=O)Oc1ccccc1C(=O)O[C@H]1CO[C@H]2[C@@H]1OC[C@H]2OC(=O)c1ccccc1O | 4.95 | 1.14 | 85 | 72 | inhibition (Platelet [14]): Active; IC50 [11]: 20.6 µM |
| CCOc1cc(OCC)cc(C(=O)O[C@@H]2CO[C@H]3[C@@H]2OC[C@@H]3OC(=O)c2ccccc2OC(C)=O)c1 | – | 1.7 | < 0.5 | – | – |
| CC(=O)Oc1ccccc1C(=O)O[C@H]1CO[C@H]2[C@@H]1OC[C@H]2OC(=O)c1cccc(C)c1 | 9.9 | 1.22 | 54 | 38 | – |

Source: ChEMBL document CHEMBL1156105 (J Med Chem, 2009)
